From ChEMBL document CHEMBL1201862, “PubChem BioAssay data set” (2004)
Several values for one entry are separate records, joined by “and”; a condition that tells them apart may be missing. Equal values may be shown once.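 All cell lines were grown in 96-well plates and treated with compound for 48 hours. The concentration for 50% growth inhibition is given as GI50.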 Activity calls are given as the source filed them. Rule as the data show it: active = GI50 up to about 1.1 µM and inactive = higher.

Experiments:
Test in all cases: DTP human tumour cell line panel, 48 h
OVCAR-3 = system: OVCAR-3
OVCAR-5 = system: OVCAR-5
EKVX = system: EKVX
HCT-116 = system: HCT-116
HCT-15 = system: HCT-15
UACC-62 = system: UACC-62
OVCAR-4 = system: OVCAR-4
SK-MEL-2 = system: SK-MEL-2
ACHN = system: ACHN
MOLT-4 = system: MOLT-4
U-251 = system: U-251
SW-620 = system: SW-620
SN12C = system: SN12C
LXFL 529 = system: LXFL 529
IGROV-1 = system: IGROV-1
786-0 = system: 786-0
SNB-75 = system: SNB-75
RPMI-8226 = system: RPMI-8226
DLD-1 = system: DLD-1
TK-10 = system: TK-10
SF-539 = system: SF-539
SF-268 = system: SF-268
XF498 = system: XF498
DMS-273 = system: DMS-273
NCI-H460 = system: NCI-H460
SK-MEL-5 = system: SK-MEL-5
DMS-114 = system: DMS-114
HL-60 = system: HL-60
KM12 = system: KM12
K562 = system: K562
SF-295 = system: SF-295
SK-OV-3 = system: SK-OV-3
UACC-257 = system: UACC-257
M14 = system: M14
NCI-H226 = system: NCI-H226
KM-20L2 = system: KM-20L2
SR = system: SR
A549 = system: A549
COLO 205 = system: COLO 205
CAKI-1 = system: CAKI-1
NCI-H522 = system: NCI-H522
HT-29 = system: HT-29
HCC 2998 = system: HCC 2998
M19-MEL = system: M19-MEL
RXF 393 = system: RXF 393
A498 = system: A498
HOP-18 = system: HOP-18
HOP-92 = system: HOP-92
SNB-78 = system: SNB-78
NCI-H23 = system: NCI-H23
SNB-19 = system: SNB-19
OVCAR-8 = system: OVCAR-8
UO-31 = system: UO-31
Malme-3M = system: Malme-3M
HOP-62 = system: HOP-62
CCRF-CEM = system: CCRF-CEM
RXF 631 = system: RXF 631
SK-MEL-28 = system: SK-MEL-28
LOX IMVI = system: LOX IMVI
PC-3 = system: PC-3
MDA-N = system: MDA-N
Hs-578T = system: Hs-578T
T47D = system: T47D
MDA-MB-435 = system: MDA-MB-435
DU-145 = system: DU-145
MDA-MB-231 = system: MDA-MB-231
BT-549 = system: BT-549

Measured: GI50

CN1CN(C2OC(CO)C(O)C2O)c2nc(N)[nH]c(=O)c21 (stereo unspecified)
> 100 µM: HCT-15
inactive: OVCAR-3 > 100 µM | OVCAR-5 > 100 µM | EKVX > 100 µM | HCT-116 > 100 µM | UACC-62 > 100 µM | OVCAR-4 > 100 µM | SK-MEL-2 > 100 µM | ACHN > 100 µM | MOLT-4 > 100 µM | U-251 > 100 µM | SW-620 > 100 µM | SN12C > 100 µM | LXFL 529 > 100 µM | IGROV-1 > 100 µM | 786-0 > 100 µM | SNB-75 > 100 µM | RPMI-8226 > 100 µM | DLD-1 > 100 µM | TK-10 > 100 µM | SF-539 > 100 µM | SF-268 > 100 µM | XF498 > 100 µM | DMS-273 > 100 µM | NCI-H460 > 100 µM | SK-MEL-5 > 100 µM | DMS-114 > 100 µM | HL-60 > 100 µM | KM12 > 100 µM | K562 > 100 µM | SF-295 > 100 µM | SK-OV-3 > 100 µM | UACC-257 > 100 µM | M14 > 100 µM | NCI-H226 > 100 µM | KM-20L2 > 100 µM | SR > 100 µM | A549 > 100 µM | COLO 205 > 100 µM | CAKI-1 > 100 µM | NCI-H522 5.15 µM | HT-29 > 100 µM | HCC 2998 > 100 µM | M19-MEL > 100 µM | RXF 393 > 100 µM | A498 > 100 µM | HOP-18 > 100 µM | HOP-92 > 100 µM | SNB-78 > 100 µM | NCI-H23 > 100 µM | SNB-19 > 100 µM | OVCAR-8 > 100 µM | UO-31 > 100 µM | Malme-3M > 100 µM | HOP-62 > 100 µM

O=C1CC(c2c[nH]c3ccccc23)C(=O)N1 (stereo unspecified)
inactive: OVCAR-3 > 100 µM | OVCAR-5 > 100 µM | EKVX > 100 µM | HCT-116 > 100 µM | UACC-62 > 100 µM | OVCAR-4 > 100 µM | SK-MEL-2 > 100 µM | ACHN > 100 µM | MOLT-4 > 100 µM | U-251 > 100 µM | SW-620 > 100 µM | LXFL 529 > 100 µM | IGROV-1 > 100 µM | 786-0 > 100 µM | SNB-75 > 100 µM | RPMI-8226 > 100 µM | DLD-1 > 100 µM | TK-10 > 100 µM | SF-539 > 100 µM | CCRF-CEM > 100 µM | XF498 > 100 µM | DMS-273 > 100 µM | NCI-H460 > 100 µM | SK-MEL-5 > 100 µM | HL-60 > 100 µM | KM12 > 100 µM | K562 > 100 µM | SF-295 > 100 µM | SK-OV-3 > 100 µM | UACC-257 > 100 µM | M14 > 100 µM | NCI-H226 > 100 µM | KM-20L2 > 100 µM | A549 > 100 µM | CAKI-1 > 100 µM | HT-29 > 100 µM | HCC 2998 > 100 µM | M19-MEL > 100 µM | RXF 393 > 100 µM | A498 > 100 µM | RXF 631 > 100 µM | SNB-78 > 100 µM | NCI-H23 > 100 µM | SK-MEL-28 > 100 µM | OVCAR-8 > 100 µM | UO-31 > 100 µM | Malme-3M > 100 µM | HOP-62 > 100 µM
> 100 µM: HCT-15

O=S(=O)(N/N=C/c1ccc(Cl)c(Cl)c1)c1ccccc1
36.1 µM: HCT-15
inactive: OVCAR-3 24.5 µM | OVCAR-5 38.2 µM | EKVX 64.9 µM | HCT-116 35.1 µM | UACC-62 46.2 µM | OVCAR-4 55 µM | SK-MEL-2 34.2 µM | ACHN 43.1 µM | MOLT-4 28.1 µM | U-251 33.7 µM | SW-620 53 µM | SN12C 37.7 µM | LXFL 529 30.4 µM | IGROV-1 33.3 µM | 786-0 31.8 µM | SNB-75 52 µM | RPMI-8226 47 µM | DLD-1 31.3 µM | TK-10 41.7 µM | SF-539 44.8 µM | SF-268 31 µM | CCRF-CEM 48.1 µM | XF498 32.2 µM | DMS-273 37.7 µM | SK-MEL-5 54 µM | DMS-114 23.8 µM | HL-60 26.6 µM | KM12 29 µM | K562 33.5 µM | SF-295 33.9 µM | SK-OV-3 39.7 µM | UACC-257 38.8 µM | M14 60.3 µM | NCI-H226 58.5 µM | KM-20L2 62.1 µM | SR 42.3 µM | A549 39.7 µM | COLO 205 21.6 µM | CAKI-1 33.2 µM | HT-29 40.1 µM | HCC 2998 30.2 µM | M19-MEL 37.3 µM | LOX IMVI 43.9 µM | RXF 393 18.5 µM | A498 26.1 µM | HOP-18 36.3 µM | HOP-92 9.82 µM | SNB-78 41.5 µM | NCI-H23 36.3 µM | SK-MEL-28 72.3 µM | OVCAR-8 25.7 µM | UO-31 27 µM | Malme-3M > 100 µM | HOP-62 35.7 µM

OC(CBr)C(O)C(O)C(O)CBr (stereo unspecified)
inactive: PC-3 > 81.1 µM | OVCAR-3 > 55.1 µM | MDA-N > 45.9 µM | OVCAR-5 > 57 µM | EKVX > 75.7 µM | OVCAR-4 > 100 µM and > 81.5 µM | SK-MEL-2 > 100 µM and > 66.2 µM | ACHN 8.09 µM | U-251 > 43.2 µM and > 63.8 µM | SW-620 > 87.7 µM | 786-0 13.7 µM | RPMI-8226 > 65.8 µM and > 38.5 µM | DLD-1 > 100 µM | TK-10 > 100 µM | SF-539 46.7 µM and 49.8 µM | Hs-578T > 100 µM | T47D > 100 µM | CCRF-CEM 14.3 µM and > 21.6 µM | MDA-MB-435 > 61.2 µM | XF498 80.5 µM | DMS-273 26.6 µM | NCI-H460 8.3 µM and 10.7 µM | DMS-114 42.4 µM | HL-60 8.73 µM and 13.3 µM | KM12 > 100 µM and > 60 µM | K562 > 87.9 µM | SK-OV-3 > 55.1 µM and > 53.1 µM | UACC-257 > 69 µM and > 64 µM | M14 28.1 µM | NCI-H226 > 100 µM and > 74.1 µM | KM-20L2 > 100 µM | SR > 100 µM | A549 19 µM and 36.9 µM | COLO 205 > 53.6 µM | NCI-H522 > 67.1 µM and > 48.6 µM | HT-29 > 100 µM and > 56 µM | HCC 2998 > 100 µM and > 72.8 µM | DU-145 12.7 µM | M19-MEL > 100 µM | MDA-MB-231 > 100 µM | LOX IMVI 51.6 µM and 40.9 µM | RXF 393 > 100 µM and > 88.9 µM | A498 > 61.9 µM | HOP-18 > 100 µM | BT-549 28.2 µM | SNB-78 > 100 µM | SK-MEL-28 > 92.7 µM | OVCAR-8 > 100 µM and 59.4 µM | Malme-3M > 100 µM and > 85.5 µM | HOP-62 28.1 µM and 28.3 µM

CC(=O)Oc1ccc(O)c(O)c1C/C=C(\C)CC/C=C(\C)CC/C=C(\C)CCC=C(C)C [TETRAPRENYLPHENOLSUILLIN]
active: OVCAR-5 0.596 µM | HCT-116 0.287 µM | OVCAR-4 0.426 µM | ACHN 0.275 µM | U-251 0.346 µM | SW-620 0.3 µM | SN12C 0.272 µM | LXFL 529 0.284 µM | 786-0 1.1 µM | SNB-75 0.439 µM | DLD-1 0.34 µM | SF-539 0.407 µM | SF-268 0.446 µM | XF498 0.357 µM | DMS-273 0.246 µM | NCI-H460 0.365 µM | DMS-114 0.35 µM | KM12 0.476 µM | SF-295 0.746 µM | UACC-257 0.65 µM | NCI-H226 0.692 µM | KM-20L2 0.946 µM | SR 0.0564 µM | A549 0.34 µM | COLO 205 0.157 µM | HT-29 0.338 µM | HCC 2998 0.871 µM | M19-MEL 0.393 µM | LOX IMVI 0.247 µM | HOP-18 0.187 µM | HOP-92 0.309 µM | SNB-78 0.272 µM | NCI-H23 0.429 µM | SK-MEL-28 0.656 µM | SNB-19 0.424 µM | OVCAR-8 0.392 µM | Malme-3M 0.274 µM
inactive: EKVX 1.55 µM | SK-MEL-2 1.16 µM | TK-10 1.32 µM | HL-60 1.39 µM | M14 1.51 µM | CAKI-1 2.65 µM | NCI-H522 1.51 µM | RXF 393 1.2 µM | UO-31 1.42 µM | HOP-62 1.24 µM
